Tests used:
TLR7 = biological target: T1, TLR7 (Homo sapiens, UniProt Q9NYK1); experiment: SEAP assay in HEK-Blue TLR7 cells activated by R848; type: cell-based; settings: below approx. micromolar concentration
T1 construct: host or cells: HEK-Blue TLR7 cells
T1 sequence (Q9NYK1 27-1049): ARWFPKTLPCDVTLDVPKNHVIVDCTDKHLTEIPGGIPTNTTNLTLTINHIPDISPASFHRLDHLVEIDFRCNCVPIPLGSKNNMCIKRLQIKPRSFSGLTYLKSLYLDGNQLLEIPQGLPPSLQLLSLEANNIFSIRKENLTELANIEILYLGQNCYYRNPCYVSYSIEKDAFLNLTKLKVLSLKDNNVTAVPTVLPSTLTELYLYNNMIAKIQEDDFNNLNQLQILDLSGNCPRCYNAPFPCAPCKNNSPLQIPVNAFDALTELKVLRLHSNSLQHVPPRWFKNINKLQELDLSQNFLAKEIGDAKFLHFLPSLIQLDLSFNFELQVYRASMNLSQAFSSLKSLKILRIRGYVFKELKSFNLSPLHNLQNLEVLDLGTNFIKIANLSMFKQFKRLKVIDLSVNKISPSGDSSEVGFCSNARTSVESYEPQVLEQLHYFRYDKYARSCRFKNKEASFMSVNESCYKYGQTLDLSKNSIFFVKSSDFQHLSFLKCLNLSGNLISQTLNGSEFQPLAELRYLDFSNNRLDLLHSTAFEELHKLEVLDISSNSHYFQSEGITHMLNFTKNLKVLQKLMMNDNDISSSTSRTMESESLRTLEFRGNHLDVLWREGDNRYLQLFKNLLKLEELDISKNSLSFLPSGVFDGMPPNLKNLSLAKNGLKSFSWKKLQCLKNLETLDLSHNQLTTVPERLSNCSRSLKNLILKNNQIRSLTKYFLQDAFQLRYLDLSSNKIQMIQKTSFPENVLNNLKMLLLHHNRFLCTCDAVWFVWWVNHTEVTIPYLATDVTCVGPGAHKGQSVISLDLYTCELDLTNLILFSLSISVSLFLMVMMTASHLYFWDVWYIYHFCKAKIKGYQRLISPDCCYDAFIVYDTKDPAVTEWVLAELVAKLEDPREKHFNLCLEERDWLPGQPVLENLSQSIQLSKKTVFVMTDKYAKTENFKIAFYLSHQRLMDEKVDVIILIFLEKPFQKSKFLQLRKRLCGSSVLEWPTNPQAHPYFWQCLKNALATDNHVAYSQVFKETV
Description: TLR selectivity assay: The selectivity of sample compound was tested using SEAP reporter assay in HEK-Blue overexpressing various TLRs. Plates were set up in same manner as described in SEAP assay above.

[1] = tested on: TNF-α production in PBMCs from RA patients; experiment: TNF-α level in PBMCs harvested from RA patients; type: cell-based, human; settings: PBMCs from RA patients and one AOSD patient; dose-dependent
[2] = tested on: TNF-α production in PBMCs from an AOSD patient; experiment: TNF-α level in PBMCs harvested from an AOSD patient; type: cell-based, human
Description: But there is a lack of appropriate rodent models because TLR8 is not functional in either mice or rats. Therefore, the TLR8 inhibitors of this disclosure were tested in human specimens harvested from patients with osteoarthritis (OA), rheumatoid arthritis (RA), and adult onset-Still's disease (AOSD). It is well established that TNF-α and IL-1β are key cytokines in the process of chronic joint inflammation in cartilage. Therefore, synovial cells were isolated from synovial tissue of patients who underwent joint replacement surgery due to severe OA. Previous studies have indicated these pathological tissues express both TLR7 and TLR8 with elevated production of various cytokines, contributing to extensive articular destruction and functional decline.

[3] = tested on: TLR8 downstream proteins (p65, p-IRAK4, TRAF3, TRIF, IRF3); experiment: Immunoblotting of TLR downstream signaling proteins in THP-1 cells treated with R848; type: cell-based, human
Description: Immunoblotting: THP-1 cells were seeded in 6-well plates with a density of 2×10^6 cells/well in RPMI 1640 medium supplemented with 10% FBS, 100 U/mL penicillin, 100 μg/mL streptomycin (PenStrep), 2 mM L-glutamine, and 0.05 mM 2-mercaptoethanol. THP-1 cells were treated with phorbol-12-myristate-13-acetate (PMA) (100 ng/mL) and incubated in humidified incubators containing 5% CO2 at 37° C. for 24 h. […] After incubation of 2 h, THP-1 cells were collected, nuclear protein fraction was extracted using NE-PER Nuclear and Cytoplasmic Extraction kit (Thermo Fisher Scientific). BCA assay was then used to determine protein concentration. Protein samples were loaded and run in 10% Tris-glycine SDS-PAGE, and then transferred onto a nitro-cellulose membrane (BioRad) using electroblotting. P65 (CST; 8242) (1:1000) was then used as primary antibody, and peroxidase-conjugated AffiniPure Goat Anti-Rabbit IgG (H+L) antibody (Jackson Immuno Research; 111-035-144) (1:10000) as secondary antibody, then blots were visualized using Thermo SuperSignal West Pico kit (Thermo Fisher Scientific). Lamin A/C (CST; 2032) were used as internal controls for nuclear fractions.
Next, the inventors carried out on-target validation for CU-CPT9a. […] By contrast, the expression of TRIF and IRF3 (cytoplasmic and nuclear) were only responsive to TLR4 and TLR3, independent of TLR8.

| effect on TLR7 (TLR7) | SMILES | TNF-α level in patient PBMCs [1] | TNF-α level in PBMCs from an AOSD patient [2] | nuclear NF-κB ([3]; 500 nM) | R848-induced elevation of downstream protein levels (p65, p-IRAK4, TRAF3) ([3]; dose-dependent, 0, 5, 50, 500 nM, 2 h) |
| --- | --- | --- | --- | --- | --- |
| not affected | Cc1cc(-c2ccnc3cc(O)ccc23)ccc1O [Compound 11b, 2-Methyl-4-(7-hydroxyl-4-quinolinyl)-phenol] |  |  |  |  |
| not affected | COc1ccc2c(-c3ccc(O)c(C)c3)ccnc2c1 [Compound 11a, 2-Methyl-4-(7-methoxyl-4-quinolinyl)-phenol] | significantly suppressed | dose-dependent suppression | significant reduction | reversed |
